In publication PMC10528180 (Foods, 2023):

Experiments:
α-glucosidase [1] = molecular target: T1, α-glucosidase (Saccharomyces cerevisiae, UniProt P53341); assay: Inhibition kinetic analysis (Lineweaver-Burk) on α-glucosidase; type: biochemical
T1 construct: purchased Sigma-Aldrich Co
Protocol: (§1) The reactions of a series of compounds with substrates pNαPG and G3-CNP were tested using the Lineweaver–Burk expression in Equation (1) to calculate the maximum velocity (Vmax) and Michaelis–Menten constant (Km) values. (1) 1/v=Km/Vmax1/[S]+1/Vmax, where Vmax and Km are the maximum velocity of the enzyme and the Michaelis–Menten constant without inhibitor, respectively. [S] is the concentrations of the substrate and inhibitor.

α-amylase [2] = molecular target: T2, α-amylase (Sus scrofa, UniProt P00690); assay: Inhibition kinetic analysis (Lineweaver-Burk) on α-amylase; type: biochemical, porcine; parameters: Vmax α-amylase: unit not given beside the values
T2 construct: α-amylase (EC 232-565-6, powder, ≥5 units/mg solid) isolated from porcine pancreas; purchased Sigma-Aldrich Co; host or cells: porcine pancreas
T2 sequence (P00690 16-511): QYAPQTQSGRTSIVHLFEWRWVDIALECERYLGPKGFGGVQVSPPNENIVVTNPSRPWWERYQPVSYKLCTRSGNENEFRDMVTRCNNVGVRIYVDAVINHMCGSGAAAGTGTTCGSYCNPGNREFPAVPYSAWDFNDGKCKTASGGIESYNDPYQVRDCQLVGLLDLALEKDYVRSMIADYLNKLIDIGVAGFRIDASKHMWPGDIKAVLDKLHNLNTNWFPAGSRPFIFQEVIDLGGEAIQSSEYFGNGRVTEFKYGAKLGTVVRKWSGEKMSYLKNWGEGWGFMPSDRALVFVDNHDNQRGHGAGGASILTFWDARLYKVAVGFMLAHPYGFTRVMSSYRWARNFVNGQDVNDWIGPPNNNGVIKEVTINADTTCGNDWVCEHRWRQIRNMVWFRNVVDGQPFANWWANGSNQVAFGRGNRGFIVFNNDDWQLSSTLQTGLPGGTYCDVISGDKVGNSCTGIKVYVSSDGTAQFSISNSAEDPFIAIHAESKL
Protocol: as §1

α-glucosidase [3] = molecular target: T1, α-glucosidase; assay: Fluorescence quenching experiment with α-glucosidase (Stern-Volmer, double logarithmic, Van 't Hoff); type: binding; details: for Kd: Ka (binding constant) α-glucosidase
Protocol: Based on the previously described techniques, the fluorescence quenching experiment was somewhat modified. […] The reaction solution’s fluorescence intensity was measured in a quartz colorimetric dish using a fluorescence spectrometer (F-7100, Tokyo, Japan) at wavelengths ranging from 295 to 500 nm (emission wavelength) and 280 nm ([…]) (1.0 cm path length). The 5.0 nm excitation and emission slit widths were predetermined.
By determining the quenching constant, it is possible to discriminate between dynamic and static protein fluorescence quenching caused by compounds [39]. […] With the increase in temperature, the binding of the complex is unstable, so the quenching constant decreases. The drop in fluorescence intensity brought on by the interaction of the quencher and the fluorescence group is what causes dynamic quenching. When the collision between the quencher and the fluorescence group intensifies as the temperature rises, the quenching constant rises. The quenching mechanism of the enzyme was further studied using the Stern–Volmer equation:(2) F0/F=1+Kqτ0Q=1+Ksv[Q], where Kq is the bimolecular quenching constant, F0 represents the fluorescence intensity of starch-digesting enzymes in the absence of inhibitors, F represents the fluorescence intensity of starch-digesting enzymes in the presence of inhibitors, and τ0 is the lifetime of the fluorophore in protein (about 10^−8 s).
By calculating the thermodynamic parameters of the quenching process, the binding affinity and the main force of the reaction process were evaluated. The thermodynamic parameters are calculated using the Van ’t Hoff equation:(4) lnKa=−△H/RT+△S/R. (5) △G=△H−T△S. where Ka is the binding constant, R is the universal gas constant, and T represents the test temperature (300.15 K, 305.15 K, 310.15 K). The thermodynamic parameters ΔH, ΔS, and ΔG represent enthalpy change, entropy change, and free energy change, respectively. […] The interaction forces in the reaction process can be roughly divided into four types: hydrophobic interaction, hydrogen bonding, electrostatic interaction, and van der Waals interaction.

α-amylase [4] = molecular target: T2, α-amylase; assay: Fluorescence quenching experiment with α-amylase (Stern-Volmer, double logarithmic, Van 't Hoff); type: binding, porcine; details: for Kd: Ka (binding constant) α-amylase
Excerpt: Based on the previously described techniques, the fluorescence quenching experiment was somewhat modified. […] The 5.0 nm excitation and emission slit widths were predetermined.
The drop in fluorescence intensity brought on by the interaction of the quencher and the fluorescence group is what causes dynamic quenching. When the collision between the quencher and the fluorescence group intensifies as the temperature rises, the quenching constant rises. The quenching mechanism of the enzyme was further studied using the Stern–Volmer equation:(2) F0/F=1+Kqτ0Q=1+Ksv[Q], where Kq is the bimolecular quenching constant, F0 represents the fluorescence intensity of starch-digesting enzymes in the absence of inhibitors, F represents the fluorescence intensity of starch-digesting enzymes in the presence of inhibitors, and τ0 is the lifetime of the fluorophore in protein (about 10^−8 s).
By calculating the thermodynamic parameters of the quenching process, the binding affinity and the main force of the reaction process were evaluated. […] The thermodynamic parameters ΔH, ΔS, and ΔG represent enthalpy change, entropy change, and free energy change, respectively. […] The interaction forces in the reaction process can be roughly divided into four types: hydrophobic interaction, hydrogen bonding, electrostatic interaction, and van der Waals interaction.

T1 sequence (P53341 whole entry): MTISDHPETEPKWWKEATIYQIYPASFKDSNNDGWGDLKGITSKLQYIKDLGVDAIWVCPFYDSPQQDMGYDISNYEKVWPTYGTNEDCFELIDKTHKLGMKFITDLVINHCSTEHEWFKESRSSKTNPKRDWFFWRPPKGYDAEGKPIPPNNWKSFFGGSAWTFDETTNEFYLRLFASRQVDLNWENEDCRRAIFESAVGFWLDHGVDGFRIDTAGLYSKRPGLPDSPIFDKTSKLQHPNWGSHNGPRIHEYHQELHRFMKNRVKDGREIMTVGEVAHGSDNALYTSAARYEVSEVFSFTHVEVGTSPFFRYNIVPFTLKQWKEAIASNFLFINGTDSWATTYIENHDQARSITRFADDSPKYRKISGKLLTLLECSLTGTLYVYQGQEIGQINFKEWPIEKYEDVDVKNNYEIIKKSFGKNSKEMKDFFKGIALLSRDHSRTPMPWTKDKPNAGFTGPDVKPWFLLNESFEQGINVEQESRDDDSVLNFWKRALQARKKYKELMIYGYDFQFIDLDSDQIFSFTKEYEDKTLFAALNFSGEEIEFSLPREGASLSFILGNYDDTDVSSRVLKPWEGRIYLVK

## O=c1c(O)c(-c2ccc(O)c(O)c2)oc2cc(O[C@@H]3O[C@H](CO)[C@@H](O)[C@H](O)[C@H]3O)cc(O)c12 [Quercimeritrin]
α-glucosidase [1]; Lineweaver-Burk diagram
  inhibition mode on α-glucosidase: competitive inhibition
α-glucosidase [1]; [I] 15.6 μM
  Vmax α-glucosidase: 0.2151
α-glucosidase [1]; [I] 31.3 μM
  Vmax α-glucosidase: 0.2028
α-glucosidase [1]; [I] 62.5 μM
  Vmax α-glucosidase: 0.2000
α-glucosidase [1]; [I] 125 μM
  Vmax α-glucosidase: 0.1916
α-glucosidase [1]; [I] 250 μM
  Vmax α-glucosidase: 0.1890
α-glucosidase [1]; [I] 500 μM
  Vmax α-glucosidase: 0.1761
α-amylase [2]; Lineweaver-Burk diagram
  inhibition mode on α-amylase: competitive inhibition
α-amylase [2]; [I] 15.6 μM
  Vmax α-amylase: 0.0521
α-amylase [2]; [I] 31.3 μM
  Vmax α-amylase: 0.0532
α-amylase [2]; [I] 62.5 μM
  Vmax α-amylase: 0.0522
α-amylase [2]; [I] 125 μM
  Vmax α-amylase: 0.0526
α-amylase [2]; [I] 250 μM
  Vmax α-amylase: 0.0503
α-amylase [2]; [I] 500 μM
  Vmax α-amylase: 0.0508
α-glucosidase [3]
  fluorescence quenching mechanism, α-glucosidase: static quenching
α-glucosidase [3]; T 300.15 K
  Kd: 1.15 µM
  Ksv (quenching constant) α-glucosidase: 0.17 ±0.03 10^5 /M
  n (number of binding sites) α-glucosidase: 1.35
  ΔG α-glucosidase: -8.15 ± 2.22 kcal/mol
α-glucosidase [3]; T 305.15 K
  Kd: 9.62 µM
  Ksv (quenching constant) α-glucosidase: 0.19 ±0.02 10^5 /M
  n (number of binding sites) α-glucosidase: 1.20
  ΔG α-glucosidase: -7 ± 2.24 kcal/mol
α-glucosidase [3]; T 310.15 K
  Kd: 24.4 µM
  Ka (binding constant) α-glucosidase: 0.41 ± 0.06 10^5 /M
  Ksv (quenching constant) α-glucosidase: 0.21 ±0.04 10^5 /M
  n (number of binding sites) α-glucosidase: 1.09
  ΔG α-glucosidase: -6.55 ± 1.87 kcal/mol
α-glucosidase [3]; Van 't Hoff, 300.15-310.15 K
  ΔH α-glucosidase: -56.6 ± 5.598 kcal/mol
  ΔS α-glucosidase: -677.34 ±87.38 J/mol/K
α-glucosidase [3]; text summary over temperatures
  n (number of binding sites) α-glucosidase: ~1
α-amylase [4]
  fluorescence quenching mechanism, α-amylase: static quenching
α-amylase [4]; T 300.15 K
  Kd: 15.2 µM
  Ksv (quenching constant) α-amylase: 0.13 ±0.03 10^5 /M
  n (number of binding sites) α-amylase: 1.20
α-amylase [4]; T 305.15 K
  Kd: 28.6 µM
  Ksv (quenching constant) α-amylase: 0.15 ±0.02 10^5 /M
  n (number of binding sites) α-amylase: 1.10
α-amylase [4]; T 310.15 K
  Kd: 38.5 µM
  Ka (binding constant) α-amylase: 0.26 ± 0.01 10^5 /M
  Ksv (quenching constant) α-amylase: 0.18 ±0.04 10^5 /M
  n (number of binding sites) α-amylase: 1.04
α-amylase [4]; Van 't Hoff, 300.15-310.15 K
  ΔH α-amylase: -3.37 ± 0.93 kcal/mol
  ΔS α-amylase: -153.31 ±34.89 J/mol/K
α-amylase [4]; text summary over temperatures
  n (number of binding sites) α-amylase: ~1
